The subject of assay [1] is allergic contact dermatitis in mice. Put plainly: Test Example: inhibition of allergic contact dermatitis (ACD) in vivo, pinnal weight and MPO activity. As to conditions: oral single dose 0.01-10.0 mg/kg. On the procedure: Groups of 8 female mice are sensitized epicutaneously with 50 μl of 2% oxazolone on the shaved ventral abdomen (day 1) and challenged with 10 μl of 0.2% oxazolone on the inner surface of the right ear (day 8). The unchallenged left ears serve as normal controls and dermatitis is evaluated from the difference in pinnal weight which is taken as a measure of inflammatory swelling (day 9). In addition, activity of myeloperoxidase (MPO) serving as a measure of leukocyte influx in ear homogenates are determined as described by Bradley et al., J. Invest. Dermatol; 78:206-209 (1982). The animals are treated orally 2 hours after challenge with the test compound of example 10. Activity is calculated as the percentage of inhibition of inflammatory auricular swelling and of MPO activity relative to animals treated with the vehicle alone. For comparison mice are treated intraperitoneally with 100 μl monoclonal anti-mouse LFA-1 antibody 1 hour before challenge and evaluated as described.

In a further assay the target is T1, LFA-1/ICAM-1 (Homo sapiens, UniProt P20701).
T1 construct: endogenous in cells; ICAM-1-Cκ fusion: made in house in the baculovirus system
The assay is described as follows: Cell free assay: binding of soluble human ICAM-1 to immobilized human LFA-1. As to conditions: immobilized human LFA-1, biotinylated ICAM-1, read-out: IC50, inhibition of adhesion of LFA-1 to ICAM-1. On the procedure: The assay determines the binding of soluble human ICAM-1 to immobilized human LFA-1. LFA-1 is purified from JY cells, a human lymphoblastoid B cell-line, by immunoaffinity chromatography analogously as described by Dustin et al., J. Immunol. 148, 2654-2663, 1992. ICAM-1 mouse Cκ fusion protein (ICAM-1) is produced using the baculovirus system as described by Weitz-Schmidt et al., Anal. Biochem. 238, 184-190, 1996. Purified LFA-1 is diluted 1:20 in phosphate buffered saline (PBS) containing 2 mM MgCl2, pH 7.4 and coated onto microtiter plates (Nunc) at 37° for 3 hours. Plates are blocked with 1% heat-treated bovine serum albumin in PBS for 2 hours at 37° followed by a washing step using PBS, 2 mM MgCl2, 1% fetal calf serum, pH 7.4 (assay buffer). Compounds of the present invention (10 mM solution in DMSO) are diluted in assay buffer and added to the plates. Biotinylated recombinant ICAM-1 in assay buffer (6 μg/ml) is added and allowed to bind at 37° for one hour. After incubation, wells are washed with assay buffer. Streptavidin-peroxidase diluted 1:5000 in assay buffer is added and incubated for 45 min at 37°. […] The reaction is stopped after 20 minutes and bound ICAM-1 is determined by measuring the optical density at 405 nm in a microplate reader.

The test system of assay [2] is allergic contact dermatitis in NMRI mice. The assay is described as follows: Allergic contact dermatitis (ACD) in vivo test system, oxazolone, auricular weight. As to conditions: p.o., 0.03 mg/kg, 2 hours after challenge. On the procedure: Groups of 8 female NMRI mice are sensitized on the shaved abdomen with 50 μl of oxazolone (2% in acetone) and challenged with 10 μl of 0.2% oxazolone on the inner surface of the right ear 7 days later. The unchallenged left ears serve as normal controls and dermatitis is evaluated from the individual differences in auricular weights, which are taken as a measure of inflammatory swelling 24 hours after the challenge. Dermatitis is evaluated in test- and control groups. The test groups are treated with the test compounds orally (2 hours after challenge), the controls are treated similarly with the vehicles alone. For oral administration the compounds are administered in an oil in H2O emulsion. The data of the test- and the vehicle-treated control groups are statistically analysed by ANOVA followed by Dunnet T-test (normal distribution or data) or by H and U-test, respectively. […] For example, compound of Example 14 has an inhibiting effect in this assay of >30% when administered p.o. at a dose of 0.03 mg/kg.

This note sets out measurements from patent US7419976B2, “Diazepanes derivatives useful as IFA inhibitors” (Novartis AG, priority 2003, dated 2008).

T1 sequence (P20701 26-1170): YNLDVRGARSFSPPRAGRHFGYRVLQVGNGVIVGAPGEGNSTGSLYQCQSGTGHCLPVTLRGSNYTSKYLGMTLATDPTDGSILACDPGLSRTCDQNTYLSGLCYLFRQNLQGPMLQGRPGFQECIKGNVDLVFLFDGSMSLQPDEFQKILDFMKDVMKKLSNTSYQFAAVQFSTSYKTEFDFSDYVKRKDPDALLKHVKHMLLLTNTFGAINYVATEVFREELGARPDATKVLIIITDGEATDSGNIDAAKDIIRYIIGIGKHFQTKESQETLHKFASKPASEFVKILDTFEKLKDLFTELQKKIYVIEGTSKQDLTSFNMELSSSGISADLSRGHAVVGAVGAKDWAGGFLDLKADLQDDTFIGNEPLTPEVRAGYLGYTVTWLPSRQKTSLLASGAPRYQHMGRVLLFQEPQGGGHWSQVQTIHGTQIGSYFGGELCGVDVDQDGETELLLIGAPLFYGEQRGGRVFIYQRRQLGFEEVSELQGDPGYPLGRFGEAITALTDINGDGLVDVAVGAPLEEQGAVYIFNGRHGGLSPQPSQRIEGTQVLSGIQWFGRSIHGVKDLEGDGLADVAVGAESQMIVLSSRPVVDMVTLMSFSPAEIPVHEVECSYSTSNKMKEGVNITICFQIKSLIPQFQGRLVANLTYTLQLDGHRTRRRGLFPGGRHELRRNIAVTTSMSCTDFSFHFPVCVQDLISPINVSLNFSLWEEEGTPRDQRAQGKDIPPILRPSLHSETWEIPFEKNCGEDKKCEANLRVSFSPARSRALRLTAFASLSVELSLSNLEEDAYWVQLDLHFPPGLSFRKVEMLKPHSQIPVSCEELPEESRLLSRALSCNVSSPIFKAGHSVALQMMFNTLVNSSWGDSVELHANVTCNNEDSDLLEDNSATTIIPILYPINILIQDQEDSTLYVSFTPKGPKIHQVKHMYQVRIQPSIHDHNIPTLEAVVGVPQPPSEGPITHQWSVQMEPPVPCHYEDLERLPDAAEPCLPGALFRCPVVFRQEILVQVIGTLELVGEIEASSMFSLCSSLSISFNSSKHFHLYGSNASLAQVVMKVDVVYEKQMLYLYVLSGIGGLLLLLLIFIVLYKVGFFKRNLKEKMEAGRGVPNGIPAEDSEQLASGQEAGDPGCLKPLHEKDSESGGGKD
T1 sequence (P05107 23-769 partner): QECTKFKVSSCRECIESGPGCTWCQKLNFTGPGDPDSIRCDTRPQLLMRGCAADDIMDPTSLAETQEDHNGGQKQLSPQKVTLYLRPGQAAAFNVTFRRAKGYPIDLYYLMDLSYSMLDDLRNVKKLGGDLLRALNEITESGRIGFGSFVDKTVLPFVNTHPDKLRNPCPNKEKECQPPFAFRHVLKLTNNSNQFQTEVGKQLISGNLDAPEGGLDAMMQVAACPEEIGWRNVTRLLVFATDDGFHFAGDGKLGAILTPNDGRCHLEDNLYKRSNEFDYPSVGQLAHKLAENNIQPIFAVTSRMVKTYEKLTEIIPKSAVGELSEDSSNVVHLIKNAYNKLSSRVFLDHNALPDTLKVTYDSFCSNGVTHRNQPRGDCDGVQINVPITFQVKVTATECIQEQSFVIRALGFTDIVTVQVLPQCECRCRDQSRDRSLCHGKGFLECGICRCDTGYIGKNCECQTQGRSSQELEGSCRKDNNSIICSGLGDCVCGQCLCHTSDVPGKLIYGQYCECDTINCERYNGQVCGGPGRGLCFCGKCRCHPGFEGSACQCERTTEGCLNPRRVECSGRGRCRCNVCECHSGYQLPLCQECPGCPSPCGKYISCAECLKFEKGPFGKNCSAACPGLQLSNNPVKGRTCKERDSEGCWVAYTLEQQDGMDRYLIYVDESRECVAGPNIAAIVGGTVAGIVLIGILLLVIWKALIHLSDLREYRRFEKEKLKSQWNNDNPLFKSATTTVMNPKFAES

Take `C[C@@H]1CCN([C@H](Cc2cccc3ccccc23)C(N)=O)C(=O)[C@H](c2ccc(F)c(Cl)c2)N1C(=O)Cc1ccc2ncccc2c1` [Example 10, (R)-2-[(3S,5R)-3-(3-Chloro-4-fluoro-phenyl)-5-methyl-2-oxo-4-(2-quinolin-6-yl-acetyl)-[1,4]diazepan-1-yl]-3-naphthalen-1-yl-propionamide]: the “inhibition of the inflammatory response” value in assay [1] (2 hours after challenge) is given as 40-50%. In addition, the “inhibition of MPO activity versus inhibition of swelling” value in assay [1] (ear homogenates) is reported as “Inhibition of swelling compared with inhibition of MPO activity is observed”.
`CC1CCN(C(Cc2cccc3ccccc23)C(N)=O)C(=O)C(c2cccc(F)c2)N1C(=O)Cc1ccc2c(c1)OCO2` [Example 13, (R)-2-[4-(2-Benzo[1,3]dioxol-5-yl-acetyl)-3,5-cis-3-(3-fluoro-phenyl)-5-methyl-2-oxo-[1,4]diazepan-1-yl]-3-naphthalen-1-yl-propionamide]: at LFA-1/ICAM-1, the IC50 (in general, the midpoint of a concentration-inhibition curve) stood at 430 nM.
Take `C[C@@H]1CCN([C@H](Cc2cccc3ccccc23)C(N)=O)C(=O)[C@H](c2cccc(Cl)c2)N1C(=O)Cc1ccc2c(c1)OCO2` [Example 14, (R)-2-[(3S,5R)-4-(2-Benzo[1,3]dioxol-5-yl-acetyl)-3-(3-chloro-phenyl)-5-methyl-2-oxo-[1,4]diazepan-1-yl]-3-naphthalen-1-yl-propionamide]: in assay [2], the “inhibiting effect in allergic contact dermatitis (auricular swelling)” value is on record as more than 30%. Further, the concentration for half-maximal inhibition (IC50) on LFA-1/ICAM-1 came out at 90 nM.
